Broadly, the IC50 is the concentration needed to halve the response being measured. For orientation: Kd means the equilibrium constant for the complex coming apart.

The values below come from patent publication US20230076411A1, “LASSO PEPTIDES FOR TREATMENT OF CANCER” (Lassogen, Inc., priority 2020, published 2023).

Test [1] deals with human melanoma cell lines RPMI-7951, SK MEL 28, SK MEL 31, SK MEL 24, A375. The test is described as follows: Melanoma cell growth inhibition (Cell Titer-Glo 2.0 Luminescent Cell Viability Assay). The class given is cell-based. To be noted: 72 hours incubation with compounds. From the text: The Cell Titer-Glo® 2.0 Luminescent Cell Viability Assay is a sensitive homogeneous method to determine the number of viable cells in culture. Detection is based on using the luciferase reaction to measure the amount of ATP from viable cells. The amount of ATP in cells correlates with cell viability. Within minutes after a loss of membrane integrity, cells lose the ability to synthesize ATP, and endogenous ATPases destroy any remaining ATP; thus the levels of ATP fall precipitously. The Cell Titer-Glo® 2.0 Reagent does three things upon addition to cells. It lyses cell membranes to release ATP; it inhibits endogenous ATPases, and it provides luciferin, luciferase and other reagents necessary to measure ATP using a bioluminescent reaction. The unique properties of a proprietary stable luciferase. There is a linear relationship (r2=0.99) between the luminescent signal and the number of cells from 0 to 50.000 cells per well. […]
Conditions: 37° C., air 95%; HEPA-filtered carbon dioxide (CO2) 5%, humidified atmosphere. • Cells are grown in 175 cm^2 flasks to 80-90% of confluency. • Culture media are aspirated and cell layer is briefly rinsed with Versen solution to remove all traces of serum. • 2 mL of Accutase is added to cells. • Flasks are returned to incubator for 5 min to allow cell detachment. • Add 6.0 mL of complete growth medium. • Single cell suspension is created by gently pipetting. • Cells are counted using a Hematocytometer and a suspension with the desired cell concentration is prepared. […]
Stock solutions (70 μL) are diluted with cell culture media to produce 500× serial dilutions and 10 of final compound dilutions are added to cells in assay plates to screen a series of 10 doses starting at […]. […] Luminescence intensity is measured for each well using the Tecan M 1000 microplate reader after 5 min of incubation with the Cell Titer-Glo® 2.0. The number of viable cells in culture is determined based on quantitation of the ATP present in each culture well. […] P values are calculated by using the Student's t test for absolute values. […]
(In general: In ATP-based viability assays light output follows the ATP content of the culture.)

Test [2] has as its target endothelin A receptor (ETAR) (Homo sapiens, UniProt P25101). The test is described as follows: ETAR IC50 (nM). From the text:
Table printed on a drawing sheet, FIG. 3
Head of the field: ETAR IC50 (nM)

For test [3], the target named is T1, endothelin B receptor (ETBR) (Homo sapiens, UniProt P24530).
T1 sequence (P24530 27-442): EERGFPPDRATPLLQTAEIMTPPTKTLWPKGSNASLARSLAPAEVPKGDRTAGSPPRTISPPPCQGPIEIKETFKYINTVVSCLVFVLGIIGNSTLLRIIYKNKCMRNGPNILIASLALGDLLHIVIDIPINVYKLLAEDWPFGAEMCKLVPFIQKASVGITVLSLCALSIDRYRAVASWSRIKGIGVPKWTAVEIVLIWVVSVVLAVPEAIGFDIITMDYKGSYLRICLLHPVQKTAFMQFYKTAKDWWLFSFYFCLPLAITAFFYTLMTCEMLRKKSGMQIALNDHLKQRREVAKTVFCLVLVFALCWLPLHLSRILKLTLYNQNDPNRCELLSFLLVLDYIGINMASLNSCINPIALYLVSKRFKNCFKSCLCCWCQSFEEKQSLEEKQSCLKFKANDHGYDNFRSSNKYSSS
As to the kind of experiment: IC50 of BQ-788 against ETAR and ETBR (FIG. 3B). Particulars: from IC50 against ETAR and ETBR. Format: binding.

Test [4] addresses T2, human recombinant ETB receptor (ETBR) (Homo sapiens, UniProt P24530).
T2 construct: expressed in transfected cells; host or cells: CHO cells, stably transfected (vector pME18S-FL3); membranes prepared from them
T2 sequence (P24530 27-442): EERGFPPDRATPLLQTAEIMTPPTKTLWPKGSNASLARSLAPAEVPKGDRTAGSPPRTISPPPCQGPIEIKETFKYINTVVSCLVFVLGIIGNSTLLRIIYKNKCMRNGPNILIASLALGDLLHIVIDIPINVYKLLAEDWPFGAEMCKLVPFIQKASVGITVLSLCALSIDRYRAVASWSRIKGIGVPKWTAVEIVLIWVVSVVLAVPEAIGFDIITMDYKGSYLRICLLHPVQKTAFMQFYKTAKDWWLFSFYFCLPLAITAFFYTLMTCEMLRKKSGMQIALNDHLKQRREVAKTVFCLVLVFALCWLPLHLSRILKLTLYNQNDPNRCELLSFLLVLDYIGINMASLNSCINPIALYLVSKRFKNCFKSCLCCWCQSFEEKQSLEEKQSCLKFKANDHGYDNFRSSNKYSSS
As to the kind of experiment: ET-1 Receptor Binding Assay ([125I]ET-1, CHO cell membranes expressing ETBR). The procedure: Preparation of Membranes. CHO cell membranes are prepared by washing ETAR- or ETBR-transfected cells with phosphate buffered saline and centrifugation. […] The homogenates are centrifuged at 8,000×g for 10 minutes and supernatants are then centrifuged at 40,000×g for 1 hour at 4° C. The pellets are homogenized in buffer A and recentrifuged at 40,000×g for 1 hour.
(§1) The glass filters are washed three times with cold 50 mM Tris-HCl buffer containing 1 mM EDTA. The radioactivity on the washed filter is measured by using a Packard γ counter.

Test [5] concerns the target human recombinant endothelin B receptor (ETBR) (human) (UniProt P24530). As to the kind of experiment: not stated on the sheet or in the legend; the receptor source, species and competing ligand are not given, and the value may come from the literature.
The next test addresses T3, ETBR receptors (Homo sapiens, UniProt P24530).
T3 sequence (P24530 27-442): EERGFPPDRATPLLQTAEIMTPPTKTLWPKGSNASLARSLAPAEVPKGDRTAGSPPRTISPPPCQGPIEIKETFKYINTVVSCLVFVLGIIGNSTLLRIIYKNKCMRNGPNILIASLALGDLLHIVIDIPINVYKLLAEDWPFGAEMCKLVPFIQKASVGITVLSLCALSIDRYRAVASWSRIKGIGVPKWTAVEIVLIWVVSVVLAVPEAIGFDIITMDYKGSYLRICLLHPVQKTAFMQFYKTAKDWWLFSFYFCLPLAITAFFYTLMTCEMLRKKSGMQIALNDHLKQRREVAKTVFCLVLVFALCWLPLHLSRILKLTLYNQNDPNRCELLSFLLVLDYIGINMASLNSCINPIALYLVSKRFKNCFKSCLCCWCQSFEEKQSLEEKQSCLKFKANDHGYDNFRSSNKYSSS
To be noted: physiological concentrations; cited from earlier work.

Test [6] concerns the target T4, human recombinant endothelin B receptor (ETBR) (human, UniProt P24530 27-442).
T4 construct: whole, on cells; The assay used membranes prepared from CHO-ETBR cells; also called ETB receptor; endothelin receptor type B
T4 sequence (looked up): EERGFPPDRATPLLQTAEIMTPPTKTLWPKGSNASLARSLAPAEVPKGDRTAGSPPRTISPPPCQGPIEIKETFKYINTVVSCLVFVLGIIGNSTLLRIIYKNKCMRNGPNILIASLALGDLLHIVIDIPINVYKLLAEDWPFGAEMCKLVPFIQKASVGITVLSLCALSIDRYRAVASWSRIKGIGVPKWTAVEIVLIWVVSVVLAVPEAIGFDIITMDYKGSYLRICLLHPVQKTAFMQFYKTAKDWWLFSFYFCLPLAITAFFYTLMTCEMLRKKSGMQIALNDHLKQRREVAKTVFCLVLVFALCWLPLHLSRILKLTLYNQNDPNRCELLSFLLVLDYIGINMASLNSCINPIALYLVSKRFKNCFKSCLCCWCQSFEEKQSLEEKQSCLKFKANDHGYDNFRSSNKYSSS
The test is described as follows: displacement of [125I]ET-1 from CHO-ETBR membranes, filtration. The procedure:
Preparation of Membranes. CHO cell membranes are prepared by washing ETAR- or ETBR-transfected cells with phosphate buffered saline and centrifugation. The resulting cell pellets are homogenized with a polytron (settings 8 for 30 seconds×2) in 5 volumes of buffer A containing 1 mM NaHCO₃, 5 mM EDTA (pH 8.3), 5 μg/ml Leupeptin, 5 μg/ml Pepstatin A, and 40 μM phenylmethylsulfonyl fluoride. The homogenates are centrifuged at 8,000×g for 10 minutes and supernatants are then centrifuged at 40,000×g for 1 hour at 4° C. The pellets are homogenized in buffer A and recentrifuged at 40,000×g for 1 hour. The resulting pellets are homogenized in buffer A supplemented with 130 mM NaCl, 5 mM Na₂HPO₄, and 1.5 mM KH₂PO₄ and stored at −70° C.
as §1

Positions of bridges follow the written chain, without caps; N, C: chain ends. Non-standard residues stand in square brackets, D forms with d. Residues, ends and D or L forms follow the SMILES beside them. No end group written: not given here. Trp(7-OH) = N[C@@H](Cc1c[nH]c2c(O)cccc12)C(=O)O; 2Nal = N[C@@H](Cc1ccc2ccccc2c1)C(=O)O Bounds are passed on as bounds.

`CC(C)C[C@@H]1NC(=O)[C@@H](C(C)C)NC(=O)[C@@H]2CCCN2C(=O)[C@@H](CC(=O)O)NC(=O)[C@@H](Cc2c[nH]c3ccccc23)NC1=O` [BQ-123] (cyclo(L[dW][dD]P[dV])): the “growth of all tested human melanoma cell lines” value (shortened to “growth”) in test [1] is reported as “not”.
In test [2], `CCCC[C@@H](NC(=O)[C@@H](Cc1cn(C(=O)OC)c2ccccc12)NC(=O)[C@H](CC(C)(C)C)NC(=O)N1[C@H](C)CCC[C@@H]1C)C(=O)O` [BQ-788] displayed a concentration for half-maximal inhibition (IC50) of 280 nM. The “growth” value in test [1] is “inhibited”. The “binding selectivity ETBR over ETAR” value in test [3] is listed as “selectively binds to ETBR over ETAR”.
In the case of “MTEQSEQTPAEYIPPMLVEVGEFTEDTLGNWHGTSPDWFFNYYW [Lasso 20]”, the concentration for half-maximal inhibition (IC50) in test [4] is > 5000 nM.
Consider BQ-788 (peptide), for which, in test [5], the IC50 amounted to 1.2 nM.
As for GNWHGTAPDWFFNYYW [Lasso 1], in test [1], the “growth” value is given as “inhibited”.
For the molecule “ET-2: cognate endothelin ligand, 21-amino acid peptide (CSCSSWLDKECVYFCHLDIIW; ends and bridges not checked; cysteine pairing not given here; UniProt P20800 49-69, looked up)”, the equilibrium dissociation constant (Kd) in the test with ETBR receptors is 0.015 nM.
Consider “MTEQSEQTPAEYIPPMLVEVGEFTEDTLGNWHGTAPDWFFNYYW [Lasso 18]”, for which the IC50 in test [4] is > 5000 nM.

B1: lasso peptide having primary sequence of SEQ ID NO: 48 (peptide)
peptide: GNWHGTAPDWFFNYYNIIW
modifications: lactam N-9
notes: also called Lasso 48
With B1, in test [6], the 50% inhibitory concentration (IC50) is > 70 nM.

B2: lasso peptide having primary sequence of SEQ ID NO: 54 (peptide)
peptide: GNWHGTAPDWFFNYY[2Nal]
modifications: lactam N-9
notes: also called Lasso 54
For the molecule B2, the IC50 in test [6] turned out to be 6.3 nM.

B3: lasso peptide having primary sequence of SEQ ID NO: 4 (peptide)
peptide: GNWHGTSPDWFFNYY[Trp(7-OH)]
modifications: lactam N-9
notes: also called Lasso 4
In the case of B3, the half-maximal inhibitory concentration (IC50) in test [6] was determined as 8 nM.
